Patent US9115092B2, “Substituted quinazoline and pyrido-pyrimidine derivatives” (Asana Biosciences, LLC, priority 2010, dated 2015)

Assays:
PC3 cells = experiment: XTT assay for cell viability, PC3 cells; format: cell-based, human; settings: Homo sapiens, PC-3, cell viability
Summary of the method: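 PC3 cells seeded at 1000 cells/well, grown 24 h, then exposed to serial dilutions of compound for 96 h. Viability read by XTT dye at 37° C, absorbance 465 nm. EC50 from sigmoidal dose-response fit.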

mTOR kinase = target: T1, mTOR kinase (Homo sapiens, UniProt P42345); experiment: mTOR kinase TR-FRET assay; format: biochemical; settings: read-out: mTO R
T1 construct: purchased Millipore, USA
Summary of the method: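 TR-FRET read-out (340 nm excitation, 615/665 nm emission) of Thr389 phosphorylation of a ULight-labeled p70 S6K peptide (50 nM) by mTOR, 20 μM ATP, 60 min room temperature after 60 min compound preincubation. Buffer HEPES pH 7.5 with MnCl2, EGTA; IC50 by sigmoidal dose-response.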

[1] = target: T2, PI3Kα (wild-type), P110/P85α (Homo sapiens, UniProt P42336); experiment: PI3 Kinase TR-FRET assay, PI3Kα (wild-type); format: biochemical
T2 construct: made in house; host or cells: SF9 insect cells
T2 sequence (P42336 whole entry): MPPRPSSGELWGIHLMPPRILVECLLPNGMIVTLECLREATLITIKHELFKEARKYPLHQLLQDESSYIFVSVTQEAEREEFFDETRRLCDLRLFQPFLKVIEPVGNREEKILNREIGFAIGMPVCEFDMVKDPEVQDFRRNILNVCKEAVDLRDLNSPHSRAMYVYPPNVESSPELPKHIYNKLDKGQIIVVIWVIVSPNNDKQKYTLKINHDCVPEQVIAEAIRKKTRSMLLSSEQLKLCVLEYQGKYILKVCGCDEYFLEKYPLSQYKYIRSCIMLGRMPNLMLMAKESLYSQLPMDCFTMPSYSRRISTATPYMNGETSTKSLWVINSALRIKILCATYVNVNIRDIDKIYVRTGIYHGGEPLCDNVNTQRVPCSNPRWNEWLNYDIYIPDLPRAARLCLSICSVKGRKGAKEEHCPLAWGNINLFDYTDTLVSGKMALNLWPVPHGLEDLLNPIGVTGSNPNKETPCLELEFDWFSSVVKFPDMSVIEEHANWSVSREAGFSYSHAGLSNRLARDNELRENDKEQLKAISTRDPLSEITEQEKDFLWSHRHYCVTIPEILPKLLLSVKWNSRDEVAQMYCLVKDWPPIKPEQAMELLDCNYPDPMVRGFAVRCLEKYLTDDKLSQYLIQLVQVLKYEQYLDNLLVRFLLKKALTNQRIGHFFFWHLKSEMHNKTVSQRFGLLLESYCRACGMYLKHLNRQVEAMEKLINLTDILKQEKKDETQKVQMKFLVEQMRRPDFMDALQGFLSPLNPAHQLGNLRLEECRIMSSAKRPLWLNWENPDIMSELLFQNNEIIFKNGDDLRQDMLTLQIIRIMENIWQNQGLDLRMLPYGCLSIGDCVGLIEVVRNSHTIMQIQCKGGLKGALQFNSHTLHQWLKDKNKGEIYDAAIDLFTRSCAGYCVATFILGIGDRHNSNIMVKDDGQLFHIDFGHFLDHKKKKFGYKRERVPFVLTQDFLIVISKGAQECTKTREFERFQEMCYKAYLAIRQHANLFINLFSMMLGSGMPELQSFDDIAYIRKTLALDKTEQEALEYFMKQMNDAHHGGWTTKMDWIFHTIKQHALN
T2 sequence (P27986 whole entry partner): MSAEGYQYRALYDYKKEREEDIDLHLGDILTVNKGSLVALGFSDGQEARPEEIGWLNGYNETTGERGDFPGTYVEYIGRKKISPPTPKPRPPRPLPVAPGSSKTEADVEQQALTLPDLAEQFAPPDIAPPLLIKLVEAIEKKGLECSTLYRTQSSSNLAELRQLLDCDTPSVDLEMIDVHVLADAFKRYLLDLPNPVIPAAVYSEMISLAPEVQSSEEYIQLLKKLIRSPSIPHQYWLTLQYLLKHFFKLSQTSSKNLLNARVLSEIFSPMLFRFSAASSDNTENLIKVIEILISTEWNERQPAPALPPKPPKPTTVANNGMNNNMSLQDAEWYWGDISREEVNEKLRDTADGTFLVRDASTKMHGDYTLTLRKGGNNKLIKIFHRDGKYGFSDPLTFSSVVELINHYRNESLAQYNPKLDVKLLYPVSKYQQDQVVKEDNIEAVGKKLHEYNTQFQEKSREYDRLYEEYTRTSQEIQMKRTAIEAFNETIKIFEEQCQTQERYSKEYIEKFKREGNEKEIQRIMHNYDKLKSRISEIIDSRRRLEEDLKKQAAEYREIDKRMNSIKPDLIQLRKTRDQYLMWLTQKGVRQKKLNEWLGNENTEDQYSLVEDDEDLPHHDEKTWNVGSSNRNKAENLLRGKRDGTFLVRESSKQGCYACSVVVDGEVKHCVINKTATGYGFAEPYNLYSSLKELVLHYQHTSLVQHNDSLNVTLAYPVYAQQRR
Summary of the method: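 TR-FRET read-out of PIP3 formation via biotin-PIP3 displacement (665/615 nm ratio) gave IC50 curves. Enzyme: 5 ng wild-type P110/P85α from Sf9 cells, 60 min RT with compound and PIP2 (MgCl2 40 mM, DTT 5 mM), then 30 min RT kinase reaction at 10 μM ATP and 10 μM PIP2.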

[2] = tested on: pS6RP(S235/236), PC3 cells; experiment: In-cell Western assay, pS6RP(S235/236) in PC3 cells; format: cell-based, human
Protocol: Cells from human prostate cancer cell line PC3 (American Type Culture Collection (ATCC), Manassas, Va. 20108 USA) were seeded at an optimal density of 22,000 cell/well in 96-well plates containing Ham's F12K medium (90 μL) and incubated overnight. The compound dilutions were carried out in 100% DMSO followed by a dilution in the medium. Test compounds were added in serial dilutions to the wells and incubated for 2 h. The cells were washed and fixed with 4% paraformaldehyde. After incubation at room temperature for 1 h in the dark, blocking was done for 2 h at room temperature. Primary antibodies for phosphorylated (p) AKT(5473) (phosphorylated at serine 473), pAKT(T308) (phosphorylated at threonine 308) and for pS6RP(S235/236) (phosphorylated at serine 235/236) (commercially available from Cell Signaling Technology®, whose protocol was followed for the in-cell western assay, were diluted to the required concentration and added to the corresponding wells followed by overnight incubation at 4° C. Eu-labeled rabbit (PE) (Perkin-Elmer USA catalog #AD0106) secondary antibody was added and incubated for 2 h at room temperature. Delfia® enhancement solution (cat #1244-105, Perkin Elmer USA) was subsequently added to the plate before taking the reading at 615 nm with excitation wavelength of 340 nm, after which 0.5 μg/mL of Hoechst® 33258 dye (Catalog #86140-5, Sigma) was added to the plate and fluorescence emission was read at 460 nm with 355 nm excitation, to evaluate the correction factor. IC50 values were calculated using a sigmoidal dose-response curve fit in GraphPad Prism® v5 software.

[3] = Homo sapiens, PC-3, In-cell Western

Compound | IC50 (PC3 cells) [nM] | IC50 (mTOR kinase) [nM] | IC50 [1] [nM] | IC50 [2, 3] [nM] | IC50 ([2]; In-cell Western) [nM]
CN(C)C1CCN(C(=O)c2ccc(NC(=O)Nc3ccc(-c4nc(N5CCOCC5)c5cc(F)c(-c6cccnc6)cc5n4)cc3)cc2)C1 (stereo in doubt) [Example 198, (S)-1-(4-(3-(dimethylamino)pyrrolidine-1-carbonyl)phenyl)-3-(4-(6-fluoro-4-morpholino-7-(pyridin-3-yl)quinazolin-2-yl)phenyl)urea] | 201 to 10000 | < 50 | < 50 | 201 to 10000 | –
CN(C)C1CCN(C(=O)c2ccc(NC(=O)Nc3ccc(-c4nc(N5CCOCC5)c5ncc(-c6cncnc6)cc5n4)cc3)cc2)C1 (stereo in doubt) [Example 199, (S)-1-(4-(3-(dimethylamino)pyrrolidine-1-carbonyl)phenyl)-3-(4-(4-morpholino-7-(pyrimidin-5-yl)pyrido[3,2-d]pyrimidin-2-yl)phenyl)urea] | 201 to 10000 | < 50 | < 50 | 201 to 10000 | –
CN(C)C1CCN(C(=O)c2ccc(NC(=O)Nc3ccc(-c4nc(N5CCOCC5)c5ccc(-c6cncnc6)cc5n4)cc3F)cc2)C1 (stereo in doubt) [Example 207, (S)-1-(4-(3-(dimethylamino)pyrrolidine-1-carbonyl)phenyl)-3-(2-fluoro-4-(4-morpholino-7-(pyrimidin-5-yl)quinazolin-2-yl)phenyl)urea] | < 100 | < 50 | < 50 | 201 to 10000 | –
NC1CCN(C(=O)c2ccc(NC(=O)Nc3ccc(-c4nc(N5CCOCC5)c5ccc(-c6cncnc6)cc5n4)cc3F)cc2)C1 (stereo in doubt) [Example 208, (S)-1-(4-(3-aminopyrrolidine-1-carbonyl)phenyl)-3-(2-fluoro-4-(4-morpholino-7-(pyrimidin-5-yl)quinazolin-2-yl)phenyl)urea] | 201 to 10000 | < 50 | < 50 | 201 to 10000 | –
CN(C)C1CCN(C(=O)c2ccc(NC(=O)Nc3ccc(-c4nc(N5CCOCC5)c5ncc(-c6cccnc6F)cc5n4)cc3F)cc2)C1 (stereo in doubt) [Example 213, (S)-1-(4-(3-(dimethylamino)pyrrolidine-1-carbonyl)phenyl)-3-(2-fluoro-4-(7-(2-fluoropyridin-3-yl)-4-morpholino-pyrido[3,2-d]pyrimidin-2-yl)phenyl)urea] | 201 to 10000 | < 50 | < 50 | 201 to 10000 | –
Cc1noc(C)c1-c1ccc2c(N3CCOCC3)nc(-c3ccc(NC(=O)Nc4ccc(C(=O)N5CCC(N(C)C)C5)cc4)cc3)nc2c1 (stereo in doubt) [Example 220, (S)-1-(4-(3-(dimethylamino)pyrrolidine-1-carbonyl)phenyl)-3-(4-(7-(3,5-dimethylisoxazol-4-yl)-4-morpholino-quinazolin-2-yl)phenyl)urea] | 201 to 10000 | < 50 | 50 to 200 | 201 to 10000 | –
CN(C)C1CCN(C(=O)c2ccc(NC(=O)Nc3ccc(-c4nc(N5CCOCC5)c5ccc(C(C)(C)O)cc5n4)cc3)cc2)C1 (stereo in doubt) [Example 289, (S)-1-(4-(3-(dimethylamino)pyrrolidine-1-carbonyl)phenyl)-3-(4-(7-(2-hydroxypropan-2-yl)-4-morpholino-quinazolin-2-yl)phenyl)urea] | 201 to 10000 | < 50 | 50 to 200 | 201 to 10000 | –
CN(C)C(=O)c1ccc(NC(=O)Nc2ccc(-c3nc(N4CCOCC4)c4ccc(C(C)(C)O)cc4n3)cc2)cc1 [Example 16, 4-(3-(4-(7-(2-hydroxypropan-2-yl)-4-morpholino-quinazolin-2-yl)phenyl)ureido)-N,N-dimethyl-benzamide] | 201 to 10000 | < 50 | < 50 | 201 to 10000 | –
CN(C)C(=O)c1ccc(NC(=O)Nc2ccc(-c3nc(N4CCOCC4)c4cccc(-c5cccnc5F)c4n3)cc2)cc1 [Example 40, 4-(3-{4-[8-(2-fluoro-pyridin-3-yl)-4-morpholin-4-yl-quinazolin-2-yl]-phenyl}-ureido)-N,N-dimethyl-benzamide] | 100 to 500 | < 50 | 50 to 200 | < 100 | –
CN(C)C(=O)c1ccc(NC(=O)Nc2ccc(-c3nc(N4CCOCC4)c4ccc(-c5cccc(O)c5)cc4n3)cc2)cc1 [Example 41, 4-(3-{4-[7-(3-hydroxy-phenyl)-4-morpholin-4-yl-quinazolin-2-yl]-phenyl}-ureido)-N,N-dimethyl-benzamide] | 100 to 500 | 50 to 200 | < 50 | < 100 | –
CN(C)C(=O)c1ccc(NC(=O)Nc2ccc(-c3nc(N4CCOCC4)c4ccc(-c5cnn(C)c5)cc4n3)cn2)cc1 [Example 55, N,N-dimethyl-4-(3-{5-[7-(1-methyl-1H-pyrazol-4-yl)-4-morpholin-4-yl-quinazolin-2-yl]-pyridin-2-yl}-ureido)-benzamide] | 100 to 500 | < 50 | < 50 | < 100 | –
Cc1ccncc1-c1ccc2c(N3CCOCC3)nc(-c3ccc(NC(=O)Nc4ccc(C(=O)N(C)C)cc4)cc3)nc2c1 [Example 62, N,N-dimethyl-4-(3-{4-[7-(4-methyl-pyridin-3-yl)-4-morpholin-4-yl-quinazolin-2-yl]-phenyl}-ureido)-benzamide] | 100 to 500 | < 50 | < 50 | < 100 | –
Cc1ccc(-c2ccc3c(N4CCOCC4)nc(-c4ccc(NC(=O)Nc5ccc(C(=O)N(C)CCN(C)C)cc5)cc4)nc3c2)o1 [Example 63, N-(2-dimethylamino-ethyl)-N-methyl-4-(3-{4-[7-(5-methyl-furan-2-yl)-4-morpholin-4-yl-quinazolin-2-yl]-phenyl}-ureido)-benzamide] | 100 to 500 | < 50 | < 50 | 100 to 500 | –
CN(C)C(=O)c1ccc(NC(=O)Nc2ccc(-c3nc(N4CCOCC4)c4ccc(-c5ccncc5F)cc4n3)cc2)cc1 [Example 65, 4-(3-{4-[7-(3-fluoro-pyridin-4-yl)-4-morpholin-4-yl-quinazolin-2-yl]-phenyl}-ureido)-N,N-dimethyl-benzamide] | 100 to 500 | < 50 | < 50 | < 100 | –
CC(=O)Nc1cncc(-c2ccc3c(N4CCOCC4)nc(-c4ccc(NC(=O)Nc5ccc(C(=O)N(C)C)cc5)cc4)nc3c2)c1 [Example 66, 4-(3-{4-[7-(5-acetylamino-pyridin-3-yl)-4-morpholin-4-yl-quinazolin-2-yl]-phenyl}-ureido)-N,N-dimethyl-benzamide] | 100 to 500 | < 50 | < 50 | < 100 | –
CN1CCN(C(=O)c2ccc(NC(=O)Nc3ccc(-c4nc(N5CCOCC5)c5ccc(-c6ccncc6)cc5n4)cc3)cc2)CC1 [Example 69, 1-[4-(4-methyl-piperazine-1-carbonyl)-phenyl]-3-[4-(4-morpholin-4-yl-7-pyridin-4-yl-quinazolin-2-yl)-phenyl]-urea] | 100 to 500 | < 50 | < 50 | < 100 | –
Cc1ccc(-c2ccc3c(N4CCOCC4)nc(-c4ccc(NC(=O)Nc5ccc(C(=O)N6CC[C@@H](N(C)C)C6)cc5)cc4)nc3c2)o1 [Example 196, (R)-1-(4-(3-(dimethylamino)pyrrolidine-1-carbonyl)phenyl)-3-(4-(7-(5-methylfuran-2-yl)-4-morpholino-quinazolin-2-yl)phenyl)urea] | – | < 50 | 50 to 200 | < 100 | –
CN(C)[C@@H]1CCN(C(=O)c2ccc(NC(=O)Nc3ccc(-c4nc(N5CCOCC5)c5cc(F)c(-c6cccnc6)cc5n4)cc3)cc2)C1 [Example 200, (R)-1-(4-(3-(dimethylamino)pyrrolidine-1-carbonyl)phenyl)-3-(4-(6-fluoro-4-morpholino-7-(pyridin-3-yl)quinazolin-2-yl)phenyl)urea] | – | < 50 | < 50 | – | 201 to 10000
N[C@@H]1CCN(C(=O)c2ccc(NC(=O)Nc3ccc(-c4nc(N5CCOCC5)c5ccc(-c6cncnc6)cc5n4)cc3F)cc2)C1 [Example 209, (R)-1-(4-(3-aminopyrrolidine-1-carbonyl)phenyl)-3-(2-fluoro-4-(4-morpholino-7-(pyrimidin-5-yl)quinazolin-2-yl)phenyl)urea] | – | < 50 | < 50 | – | 201 to 10000
